Assay results taken from US9566290B2, “Boron-containing small molecules” (Anacor Pharmaceuticals, Inc., priority 2005, dated 2017).
In brackets after ≈: the same amount, converted by molar mass. Several values for one entry are separate records, joined by “and”; a condition that tells them apart may be missing. Equal values may be shown once. Read-outs that look alike come from different tables or passages of the source.

How the values were obtained:
[1] = tested on: S. cerevisiae diploid (mutant strain/ATCC200901); test: MIC of diploids from yeast mating experiment; assay type: cell-based, Saccharomyces cerevisiae
Experimental: The minimal inhibitory concentration (MIC) was essentially performed following the NCCLS guidelines outlined in the M27 protocol with the exception of using YPD or synthetic defined media (SDM).
The haploid mutants derived from S. cerevisiae ATCC201388 were mixed with S. cerevisiae ATCC 200901, and were incubated on YPD agar plates at 30° C. for 4 h. The cell mixture was streaked out on synthetic defined media agar (BD, NJ USA) without the amino acids lysine and methionine, which are selective for diploids.

[2] = Stability at room temperature in water and octanol; assay type: physicochemical
Experimental: C10 (10 μL of 5000 μg/mL) was added both to 0.5 mL n-octanol and 0.5 mL water in triplicate. Samples were mixed. At 0 h and 24 h samples were stored at ca. −20° C. Twenty five L of sample was used for analysis.
(§1) For the octanol sample, 25 μL of ethanol, 25 μL of water and 300 μL of acetonitrile containing the internal standard was added. For the water sample, 25 μL of ethanol, 25 μL of octanol and 300 μL of acetonitrile containing the internal standard [60 mL of acetonitrile add 6 μL of PNP (1000 μg/mL)] was added. For the calibrators 25 μL of octanol, 25 μL of water and 300 μL of acetonitrile containing the internal standard was added. The sample was vortexed for 10 seconds. Two hundred μL of the organic layer were transferred into a clean deactivated autosampler vial.
(§2) A 1/concentration weighted linear regression was used for the quantitation of C10. All integration were performed with peak areas using Analyst version 1.3, Applied Biosystems. For C10, peak area ratios analyte to internal standard PNP were used for all quantitation.

[3] = tested on: 19 test strains of fungi; test: Antifungal MIC, microbroth dilution (NCCLS); assay type: cell-based; details: MIC = over 90% reduction of growth, read-out: MIC values against all fungi tested
Text: (§3) (C10) is a novel compound in development for use as a topical antifungal treatment. The purpose of this study was to determine the minimum inhibitory concentration (MIC) for (C10) against 19 test strains of fungi including: Aspergillus fumigatus (A. fumigatus), Candida Albicans (C. albicans, both fluconazole sensitive and resistant strains), Candida glabrata (C. glabrata), Candida krusei (C. krusei), Cryptococcus neoformans (C. neoformans), Candida parapsilosis (C. parapsilosis), Candida tropicalis (C. tropicalis), Epidermophyton floccosum (E. floccosum), Fusarium solani (F. solani), Malassezia furfur (M. furfur), Malassezia pachydermatis (M. pachydermatis), Malassezia sympodialis (M. sympodialis), Microsporum audouinii (M. audouinii), Microsporum canis (M. canis), Microsporum gypseum (M. gypseum), Trichophyton mentagrophytes (T. mentagrophytes), Trichophyton rubrum (T. rubrum), Trichophyton tonsurans (T. tonsurans). Fungal growth was evaluated after exposure to different concentrations of (C10). In addition, the MIC for (C10) against T. rubrum in the presence of 5% keratin powder and the minimum fungicidal concentration (MFC) for (C10) against T. rubrum and T. mentagrophytes were also determined. Ciclopirox and/or terbinafine and/or fluconazole and/or itraconazole were used as comparators and tested in a similar manner. These studies were conducted at NAEJA Pharmaceutical, Inc. […]

[4] = Water solubility (table of physicochemical properties)
[5] = tested on: T. mentagrophytes; test: Minimum fungicidal concentration (MFC); assay type: cell-based; details: Trichophyton mentagrophytes, lowest concentration that killed over 90%
Text: as §3

[6] = tested on: T. rubrum; test: Minimum fungicidal concentration (MFC); assay type: cell-based; details: Trichophyton rubrum, lowest concentration that killed over 90%
Text: as §3

[7] = Log P determination (octanol/water) by LC/MS/MS; assay type: physicochemical; details: for Conc. in Octanol / Conc. in Water: partition
Experimental: C10 (10 μL of […]) at 2× the final concentration was added to 0.5 mL pre-saturated n-octanol and mixed. An equal volume (0.5 mL) of pre-saturated water was added, vortex mixed and then mixed on a rotating shaker for one hour and 24 h in triplicate at ca. 25° C. The organic and aqueous layers were separated by centrifugation for 5 min at ca. 2000 rpm. Twenty five […] of the octanol (top) layer were removed and placed in a pre-labeled tube. Twenty five L of the aqueous layer (bottom) were removed, taking care to avoid octanol contamination, and placed in a pro-labeled tube.
as §1, §2
The partition coefficient (P) was calculated according to the equation detailed below: P=[Sample concentration]octanol/[Sample concentration]water Log P=log10(partition coefficient) Results: […]

## OB1OCc2cc(F)ccc21 [C10, 5-fluorobenzo[c][1,2]oxaborol-1(3H)-ol]
[1]; Saccharomyces cerevisiae, ATCC200901
  MIC: 32 mg/L
[1]; Saccharomyces cerevisiae, ATCC 200901 / ATCC 201388
  MIC: 0.5 mg/L
[1]; diploid (G)/ATCC200901
  MIC: 32 mg/L
[1]; diploid (H)/ATCC200901
  MIC: 32 mg/L
[1]; three mutants mated with ATCC 200901
  MIC of diploids from C10 mutants versus diploid from parental strain: 64 fold
[2]; 24 h, without continuous mixing
  stability in pure water and octanol, in words: stable over 24 h
[2]; Octanol
  Percent Remaining 24 h versus 0 g: 93%
[2]; Octanol, 0 h
  Mean: 115 µg/mL
[2]; Octanol, 24 h
  Mean: 107 µg/mL
[2]; Water
  Percent Remaining 24 h versus 0 g: 115%
[2]; Water, 0 h
  Mean: 82.5 µg/mL
[2]; Water, 24 h
  Mean: 95.0 µg/mL
[3]
  MIC: 0.25 to 2 mg/L (≈ 1.65 to 13.2 µM)
[4]
  solubility: > 0.1 mg/mL
[5]
  MFC: 16 mg/L (≈ 105 µM)
[6]
  MFC: 8 mg/L (≈ 52.7 µM)
[7]; 1 h, replicates
  Log P: 1.93
  Conc. in Octanol: 108 µg/mL and 103 µg/mL and 115 µg/mL
  Conc. in Water: 1.26 µg/mL and 1.21 µg/mL and 1.05 µg/mL
[7]; 24 h, replicates
  Log P: 1.89 and 1.91
  Conc. in Octanol: 109 µg/mL and 99.0 µg/mL and 104 µg/mL
  Conc. in Water: 1.17 µg/mL and 1.28 µg/mL and 1.27 µg/mL
[7]; after 24 h (n=3)
  mean log P: 1.93
[7]; n-octanol/water, 1 h, replicates, read-out: Log P
  logP at 1 h: 2.04
[7]; n-octanol/water, 24 h, replicates
  logP at 24 h: 1.97
[7]; n-octanol/water, after 1 h (n=3), read-out: mean log P
  logP at 1 h: 1.97
